Measurements taken from patent US20210244028A1, “TREATMENT FOR REMOVING ECTOPARASITES FROM FISH” (priority 2018, published 2021).
Like-named read-outs stand apart in the source and are kept apart here.

Legend:
[1] = test system: Lepeophtheirus salmonis; details: 20 ppm (nitenpyram 19 ppm); for percentage of sea lice that dropped from treated fish at the end of the treatment period: culled fish
Description: The fish were acclimatised until normal feeding behaviour resumed, up to a maximum of 10 days, prior to challenge. The fish were housed in 750 litre tanks at a stocking density of no greater than 35 kg/m3. Tanks were provided with a continuous supply of seawater at a flow rate greater than 5 L/min at a temperature of 4.8-10.4° C. The photoperiod was set at 12 hours light: 12 hours dark.
The fish were challenged in a static bath with copepodid instar of Lepeophtheirus salmonis with the appearance of egg strings freshly removed from adult female lice at a target titre of 1,250-1,700 copepodids per tank
Egg strings were harvested from gravid sea lice and incubated in upwelling chambers until nauplii eclosion. Nauplii were allowed to moult through to the copepodid instar (5 days at approx. 10° C.) and then the tank water was filtered through a 100 μm mesh before re-suspending the copepodids in 225 mL of sea water. A 25 mL sample was removed which was then split into 1-2 mL samples in a 24-well plate and the nauplii/copepodids were counted under a stereo microscope. When abundance was sufficient and a minimum of 80% were copepodids the fish were challenged for 8 hours under static flow in the dark.
Fish were randomly selected from tanks, lightly sedated in a 90 ppm MS222 solution sufficient only to induce loss of equilibrium before being sacrificed by a non-recoverable blow to the head. Between 4 and 33 fish were required per treatment.
Culled fish were then suspended in treatment tanks. Fish were suspended in the tank horizontally from cable ties (one through the opercular cavity, one around the peduncle) and wire attached to a wooden rod). One 20 L tank of test item at 20 ppm was used per day. Lice on culled fish were exposed for either 5, 10, 15, 30 or 60 minutes (negative control was only exposed for 60 minutes as this would cover the longest exposure period to be tested). The order within treatment was randomised.
Lice were monitored continuously for the duration of the exposure and behavioural observations noted, including detachment of lice from fish. At the end of exposure lice were either removed from the tank or fish, placed into small vented plastic screw-top containers (125 mL, LDPE, 25 mm hole drilled into lid and secured with 200 μm mesh), and transferred to a clean tank supplied with filtered sea water and held there for 24 h. Lice which had detached from fish were kept separate from those that had not detached.
On the day of exposure, 200 mg of the test ectoparasite treatments was added to 1 L of sea water. Only 192 mg of nitenpyram was supplied. The solution was mechanically stirred for 30 minutes, using a stirring plate and magnetic flea (VWR), at a speed sufficient to generate a strong vortex to ensure a homogenous solution. This was then transferred into an approx. 25 L clear plastic tank containing 9 L of sea water. The solution was then mixed for a further 10 minutes using a small pump (Fluval Sea CP1), which was then removed from the tank prior to addition of fish.
Each treatment requiring 1 to 4 fish per individual treatment per replicate and 2 to 13 fish per group per replicate. Treatments with negative control (sea water), dinotefuran, clothianidin and thiamethoxam were replicated twice, and for imidacloprid three times. There was only one replicate per treatment for nitenpyram. The mean number of lice used per individual treatment was 5.5 to 10, with the mean per group being 6.2-7.2 lice.

[2] = test system: Atlantic salmon; assay: Fish mortality and behaviour during bath treatment (Example 7); format: in vivo; details: 20 ppm to 200 ppm, 3 to 60 minutes
Description: To determine the concentration- and time-dependence of imidacloprid treatment in vivo, Atlantic salmon (average of 320.9 g) were challenged with imidacloprid in seawater ([…] salinity) at 12° C. The water level in the tank was lowered and aeration was employed during administration of the active. The salmon louse copepodid culture was counted and adjusted to obtain a target level of around 40 copepodids per fish in the challenge tank at each challenge time point.
Fish behaviour/appearance was assessed in vivo during each test. Any changes in behaviour and/or appearance including mortality were recorded.

[3] = test system: fish; assay: Safety of imidacloprid treatment on fish (Example 8); format: in vivo; details: 65 ppm
Description: The safety of the imidacloprid treatment on fish was assessed. Fish held in a flow through tank containing 271.8 L of sea water were exposed to 65 ppm w/v of the active ingredient imidacloprid. 17.67 g of imidacloprid was dissolved in 100 ml of dimethyl sulfoxide (DMSO) and the solution was added to approximately 900 ml sea water and mixed. The flow on the through tank was disabled and the solution of imidacloprid was added.
The fish were exposed to 65 ppm imidacloprid in static water for 1 hour and observed for behavioural changes at 5-10 minute intervals. The fish were then held for a further 7 days before being terminated.

[4] = test system: Lepeophtheirus salmonis; assay: Relative efficacy study, 60 min static bucket treatment of infected salmon (Example 2.2); format: in vivo
Description: 120 salmon fish (Salmo salar) were divided across five flow-through treatment tanks and acclimated for 24 hours prior to parasite challenge.
Egg strings removed from ovigerous female Lepeophtheirus salmonis were collected and cultured until infective copepodids were produced. The copepodids were then evenly distributed into five bottles containing sea water and stored at ˜10° C. overnight. In preparation for the challenge, water flows in the treatment tanks were stopped and light levels reduced. 650±20 copepodids (˜27 per host) were added to the static water and the tanks maintained in total darkness for 7 hours after which light levels were raised and the water flow resumed.
Fish were randomly divided into ten groups of ten fish and held in static ‘treatment buckets’ containing 30 L of water and high aeration as shown in Table 3. […]
Experimental animals were monitored closely for adverse reactions and the status of the parasite infection. Where possible the time at which all parasites were thought to have detached was recorded. As treatments were performed in static systems, temperature and dissolved oxygen were regularly monitored throughout the procedure and aeration adjusted as required.
After the treatment period, the test animals were removed from the treatment solution and humanly euthanised. Each fish was weighed, measured, and its individual parasite burden assessed. The number of parasites in the treatment solution was also counted and qualitatively assessed for: sex and maturity, apparent signs of neonicotinoid poisoning, and/or potential recovery.
Logistic regression was used to compare parasite clearance after treatment with each of the concentration. Logistic regression analyses were performed using the glm function in R v.2.13.0 and assumed a binomial or quasi-binomial error distribution (determined through the comparison of the null deviance with the degrees of freedom).

[5] = exposure 15 min, * only one louse knocked down
[6] = exposure 30 min, * only one louse knocked down
[7] = exposure 60 min, * only one louse knocked down

## O=[N+]([O-])NC1=NCCN1Cc1ccc(Cl)nc1 [imidacloprid]
[1]; exposure 5 min
  percentage of sea lice that dropped from treated fish at the end of the treatment period: 0%
[1]; exposure 10 min
  knockdown times (mean±SEM): 481 ± 60 s
  percentage of lice for which their knockdown time equalled that of the exposure time: 33.3%
  percentage of sea lice that dropped from treated fish at the end of the treatment period: 20.0%
[1]; exposure 15 min
  percentage of sea lice that dropped from treated fish at the end of the treatment period: 42.9%
[1]; [5]
  knockdown times (mean±SEM): 586 ± 114 s
  percentage of lice for which their knockdown time equalled that of the exposure time: 28.6%
[1]; exposure 30 min
  percentage of sea lice that dropped from treated fish at the end of the treatment period: 41.2%
[1]; [6]
  knockdown times (mean±SEM): 1029 ± 165 s
  percentage of lice for which their knockdown time equalled that of the exposure time: 11.1%
[1]; exposure 60 min
  percentage of sea lice that dropped from treated fish at the end of the treatment period: 92.9%
[1]; [7]
  knockdown times (mean±SEM): 1209 ± 235 s
  percentage of lice for which their knockdown time equalled that of the exposure time: 7.7%
[2]
  Fish mortality in the trial: No fish died
[3]; 1 hour exposure, 7 days monitoring
  Adverse reactions during a further 7 days: no adverse reactions
[3]; 1 hour exposure, terminated after 7 days
  External pathologies on termination: no external pathologies
[3]; static water, 1 hour
  Fish behaviour during the exposure period: No observable changes in fish behaviour
[4]; 10 mg/l
  Parasites remained attached to their hosts at the sampling point: 20%
[4]; 25 mg/l
  Parasites remained attached to their hosts at the sampling point: 3%
[4]; 15 and 20 mg/l
  Parasites remained attached to their hosts at the sampling point: 8%
